Assays:
MDA-MB-468 xenograft = test: MDA-MB-468 breast cancer xenograft animal model; format: in vivo, Nu/Nu mice
Experimental: MDA-MB-468 cells were used to inoculate Nu/Nu mice. (A, left) Tumor bearing mice were given vehicle (10 μl DMSO, CTL) or YC-1 (30 and 60 mg/kg/day) by ip treatment. (B, right) Tumor bearing mice were given vehicle (normal saline, CTL) or YC-1-succinate (YC-1-S; 20, 40, and 80 mg/kg/day) by oral administration. During treatment period, tumor volume and body weights of mice were measured once per 3 days. Data are expressed as mean of tumor volume (mm^3)±S.E.M. from 6 mice (YC-1 treatment) or 10 mice (YC-1-S treatment). Tumor weights (B) and body weights of mice (C) in control and YC-1/YC-1-S-treated groups were recorded.
Nu/Nu female mice (four weeks old) were from National Laboratory Animal Center, Taipei, Taiwan. Mice were maintained under procedures and guidelines from the Institutional Animal Care and Use of the National Health Research Institutes. MDA-MB-468 breast cancer cells (5×10^6 cells per mouse) were suspended in 0.1 ml of Matrigel solution (50%, v/v, Matrigel in 1×PBS) and inoculated into the mammary fat pads of nude mice. When the tumor masses reached to 100 mm^3, the tumor bearing mice were randomly divided into different groups for different dosage of YC-1 treatments. The mice were given by intraperitoneal injection with YC-1 or oral administration of YC-1-succinate. Tumor size and body weights of mice were measured once per 3 days and tumor volume (mm^3) was calculated as the equation: length×[…]. At the end of experiments, mice were sacrificed and tumor nodules were dissected and weighted. Tumor tissues were subjected to western blot analysis.

[1] = In vivo pharmacokinetic analysis
MDA-MB-468 = test: MTT cell viability assay; format: cell-based, human; details: inhibitor pretreatment, then 3 μM YC-1 for 6 h
Experimental: (A) Cells were treated with indicated concentration of YC-1 for 6, 24, and 48 h. Cell viability was determined by MTT method. (B) MDA-MB-468 cells were treated with 3 μM YC-1 for 0, 6, and 12 h, and then stained with fluorescence diacetate (FDA) and propidium iodide (PI). Cell morphology was assessed by fluorescence microscopy with magnification ×20 (upper 3 rows) or ×40 (lowest row). (C) MDA-MB-468 cells were treated with 3 μM YC-1 for 24 h, cells were lysed and subjected to western blot analysis described in Materials and Methods. β-actin is a loading control. Blots were representative of results from three independent experiments. (D) Cells were treated with vehicle (DMSO, as control) or 3 μM YC-1 for 6 h. The cell cycles were analyzed by flow cytometry. (E) Cells were treated with indicated concentration of YC-1 and then performed with clonogenic assay.
Human breast cancer cells, MDA-MB-468, MDA-MB-157, MDA-MB-231, MDA-MB-453, and Hs578T, and immortalized mammary epithelial cell lines, 184A1 and MCF-10A, were obtained from American Type Culture Collection (Manassas, Va., USA). MDA-MB-468, MDA-MB-157, MDA-MB-231, and MDA-MB-453 were cultured in DMEM/F12 medium supplemented with 10% FBS, 100 U/ml penicillin, and 100 μg/ml streptomycin. Hs578T was cultured in RPMI 1640 medium containing 10% FBS, 2 mM L-glutamine, 100 U/ml penicillin, and 100 μg/ml streptomycin. 184A1 and MCF-10A were cultured in DMEM/F12 medium supplemented with 5% horse serum, 0.5 μg/ml hydrocortisone, 10 μg/ml insulin, 20 ng/ml epidermal growth factor, 0.1 μg/ml cholera enterotoxin, 2 mM L-glutamine, 100 U/ml penicillin, and 100 μg/ml streptomycin. All cells were maintained in a humidified incubator containing 5% CO2. For hypoxia treatment, cells were incubated in a chamber flushed with 1% 02, 5% CO2, and 94% N2 at 37° C.
Cell viability was measured by 3-(4,5-Dimethyl-2-thiazolyl)2,5-diphenyl-2H-tetrazolium bromide (MTT) assay.

EZH2 [2] = test: EZH2 ubiquitination assay; format: cell-based, human; details: inhibitor pretreatment, then 3 μM YC-1
Experimental: (A) Cells were pretreated with cyclohexamide (30 μM) for 1 h and followed by induction with vehicle (DMSO) or YC-1 (3 μM) for indicated time. Cells were harvested for detection of protein expression. (B)(C) Cells were incubated with 3 μM YC-1 for 6 h in the presence of vehicle, 3 μM MG-132 or 30 μM NH4Cl. Cells were harvested for detection of protein expression (B) or cell viability assay (C). The levels of protein expression were quantitated and shown under blots. (D) After treatment of 3 μM YC-1 for indicated time, cells were harvested and lysed for immunoprecipitation and western blot analysis described in Materials and Methods.
Cells were lysed with MLB buffer (25 mM HEPES, pH 7.5, 150 mM NaCl, 1% Igepal CA-630, 10 mM MgCl2, 1 mM EDTA, 2% glycerol, 1 mM Na3VO4, 1 mM NaF, 1 mM PMSF, 10 μg/ml of leupeptin, aprotinin, and pepstatin A). After sonication, cell lysates were centrifugated at 12,000×g for 10 min at 4° C. Supernatants were incubated with anti-EZH2 antibody (BD Biosciences) and protein A Sepharose beads (GE Health Care) overnight at 4° C. After washing with MLB buffer, precipitated proteins were boiled in 1× Laemmli sample buffer and then separated with SDS-PAGE. The ubiquitination levels of EZH2 were recognized by using anti-Ubiquitn monoclonal antibody.

EZH2 [3] = test: Western blot of EZH2 protein expression in MDA-MB-468 cells; format: cell-based, human; details: inhibitor pretreatment, then 3 μM YC-1 for 6 h
Experimental: Cells were harvested and performed with western blotting analysis. […] The levels of protein expression were quantitated and shown under blots. (C) Cells were transfected with EZH2 shRNA for 0, 1, 2, 3, and 4 days and collected for determination of cell viability (left) and protein expression (right). (D)(E) After 4 days of EZH2 knockdown, cells were incubated with 3 μM YC-1 for 4 h and detected cell viability (D) and protein contents (E). (F) Tumor specimens were isolated and protein was extracted for western blot analysis.
Cells were lysed in PBS containing proteinase inhibitor and phosphatase inhibitors and sonication. Protein concentration was measured using the Bio-Rad protein assay kit (Bio-Rad Laboratories, Hercules, Calif., USA). Lysate protein was separated by electrophoresis of SDS-PAGE and transferred to Immobilon P membrane (EMD Millipore). The membranes were incubated with appropriate primary antibodies and horseradish peroxidase-conjugated secondary antibodies (EMD Millipore). The signaling was visualized using Chemiluminescence substrate kit (EMD Millipore) and collected by the Luminesence image analyzer, LAS4000 (Fuji Photo Film Co., Tokyo, Japan). The band intensities were analyzed and quantified by the Multi Gauge software (Fuji Photo Film).

ERK = test: Western blot of ERK phosphorylation in MDA-MB-468 cells; format: cell-based, human; details: 3 μM YC-1 for 6 h in the presence of inhibitor
Experimental: (A) Cells were pretreated with KT5720 (3 μM), KT5823 (3 μM), NS2028 (30 μM), or ODQ (30 μM) and then stimulated with YC-1 (3 μM) for 6 h. Cells were collected for measurement of protein expression (left) or cell viability (middle). After 3 days of PKA knockdown, cells were induced with 3 μM YC-1 for 4 h. Cells were harvested and analyzed using western blotting (right). The levels of protein expression were quantitated and shown under blots. […] Cells were collected and analyzed protein expression (left) and cells viability (middle). p44/42 MAPK knockdown cells were treated with 3 μM YC-1 for 4 h and then detected protein expression (left). (C) Cells were treated with 3 μM YC-1 for indicated time. Cells were harvested for detection of protein phosphorylated activation. […] Six hours later, cells were harvested for EZH2 ubiquitination assay. (E) Cells were induced by 3 μM YC-1 for 6 h in the presence of PD98059 or KT5720. Cells were collected for the determination of ERK phosphorylation. Cells were lysed in PBS containing proteinase inhibitor and phosphatase inhibitors and sonication. Protein concentration was measured using the Bio-Rad protein assay kit (Bio-Rad Laboratories, Hercules, Calif., USA). […] The band intensities were analyzed and quantified by the Multi Gauge software (Fuji Photo Film).

Structure (SMILES)	tumor growth (MDA-MB-468 xenograft; 20, 40, and 80 mg/kg orally)	body weights of mice (MDA-MB-468 xenograft; 20, 40, and 80 mg/kg/day oral)	tumor weight (MDA-MB-468 xenograft; 20, 40, and 80 mg/kg/day oral)	conversion of prodrug into active form [1]	effect of inhibitor on YC-1-induced inhibition of cell viability (MDA-MB-468)	effect of inhibitor on YC-1-induced EZH2 ubiquitination (EZH2 [2])	effect of inhibitor on YC-1-induced EZH2 inhibition (EZH2 [3])	effect of inhibitor on ERK phosphorylation (ERK)
O=C(O)CCC(=O)OCc1ccc(-c2nn(Cc3ccccc3)c3ccccc23)o1 [YC-1-succinate, succinic acid mono-[5-(1-benzyl-1H-indazol-3-yl)-furan-2-ylmethyl]ester]	dose-dependent inhibition	not affected	dose-dependently reduced tumor weight	quickly converted into its active form				
CCCCCCOC(=O)[C@]1(O)C[C@@H]2O[C@@]1(C)n1c3ccccc3c3c4c(c5c6ccccc6n2c5c31)C(=O)NC4 [KT5720]					significantly reversed	could be blocked	significantly reversed	did not affect ERK phosphorylation

From US20140357688A1, “METHOD FOR INHIBITING EZH2 EXPRESSION IN BREAST CANCER CELLS” (Yung Shin Pharm. Ind. Co., Ltd., priority 2013, published 2014)
